According to ChEMBL document CHEMBL1132652, “Design and synthesis of isoxazoline derivatives as factor Xa inhibitors. 2” (J Med Chem, 1999):

Tests used:
Coagulation factor X = Coagulation factor X (Homo sapiens, UniProt P00742); assay: Binding affinity towards human purified Coagulation factor Xa (FXa)
Prothrombin = Prothrombin (Homo sapiens, UniProt P00734); assay: Binding affinity towards thrombin obtained from human purified enzymes
Serine protease 1 = Serine protease 1 (Homo sapiens, UniProt P07477); assay: Binding affinity towards trypsin obtained from human purified enzymes
[1] = In vivo clearance (5 mg/kg) was determined in rabbits; format: ADME, organism-based, Oryctolagus cuniculus; conditions: rabbit
Oryctolagus cuniculus = species: Oryctolagus cuniculus; assay: Inhibitory activity against thrombus formation in rabbit using Arterio-Venous Shunt Thrombosis Model; format: functional
[2] = The plasma half life (5 mg/kg) was measured in rabbits; format: ADME, organism-based, Oryctolagus cuniculus; conditions: rabbit

Sequence of Serine protease 1 (P07477 whole entry): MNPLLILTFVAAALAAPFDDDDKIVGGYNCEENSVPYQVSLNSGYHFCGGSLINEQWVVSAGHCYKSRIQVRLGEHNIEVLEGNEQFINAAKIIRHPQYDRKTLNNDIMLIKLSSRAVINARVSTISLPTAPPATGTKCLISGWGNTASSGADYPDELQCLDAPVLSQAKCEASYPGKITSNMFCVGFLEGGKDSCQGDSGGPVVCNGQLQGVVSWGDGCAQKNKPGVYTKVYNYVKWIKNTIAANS
Sequence of Coagulation factor X (P00742 41-179 limits assumed): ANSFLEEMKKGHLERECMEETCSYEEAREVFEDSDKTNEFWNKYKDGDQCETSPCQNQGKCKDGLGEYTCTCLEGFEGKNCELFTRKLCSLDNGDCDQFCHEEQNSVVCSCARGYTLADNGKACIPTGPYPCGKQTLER
Sequence of Coagulation factor X (P00742 235-488 limits assumed): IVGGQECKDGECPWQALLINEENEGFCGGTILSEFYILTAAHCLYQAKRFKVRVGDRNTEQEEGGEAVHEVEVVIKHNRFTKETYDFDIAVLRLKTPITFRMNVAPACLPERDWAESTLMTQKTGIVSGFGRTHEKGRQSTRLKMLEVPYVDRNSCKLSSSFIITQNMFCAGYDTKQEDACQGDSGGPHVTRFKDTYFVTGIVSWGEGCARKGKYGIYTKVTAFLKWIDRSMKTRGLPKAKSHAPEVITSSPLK

Row | SMILES | Ki (Coagulation factor X) | Ki (Prothrombin) | Ki (Serine protease 1) | clearance [1] | ID50 (Oryctolagus cuniculus) | half-life [2]
1 | CCS(=O)(=O)CC1(C(=O)Nc2ncc(-c3ccccc3S(N)(=O)=O)cn2)CC(c2cccc(C(=N)N)c2)=NO1 (stereo not given) | 0.0053 µM | 13 µM | 0.29 µM |  |  | 
2 | COCC1(C(=O)Nc2ccc(-c3ccccc3S(N)(=O)=O)cn2)CC(c2cccc(C(=N)N)c2)=NO1 (stereo not given) | 0.0025 µM | 7.4 µM | 0.045 µM |  |  | 
3 | CC(C)OCC1(C(=O)Nc2ccc(-c3ccccc3S(N)(=O)=O)cc2)CC(c2cccc(C(=N)N)c2)=NO1 (stereo not given) | 0.0043 µM | 4.5 µM | 0.12 µM |  |  | 
4 | CNS(=O)(=O)c1ccccc1-c1ccc(NC(=O)C2(Cn3cnnn3)CC(c3cccc(C(=N)N)c3)=NO2)cc1 (stereo not given) | 0.00092 µM | 0.1 µM | 0.049 µM |  |  | 
5 | CCSCC1(C(=O)Nc2ccc(-c3ccccc3S(N)(=O)=O)cn2)CC(c2cccc(C(=N)N)c2)=NO1 (stereo not given) | 0.0022 µM | 2.8 µM | 0.054 µM |  |  | 
6 | CCCOCC1(C(=O)Nc2ccc(-c3ccccc3S(N)(=O)=O)cc2)CC(c2cccc(C(=N)N)c2)=NO1 (stereo not given) | 0.0029 µM | 4.3 µM | 0.09 µM |  |  | 
7 | CCOCC1(C(=O)Nc2ccc(-c3ccccc3S(N)(=O)=O)cc2)CC(c2cccc(C(=N)N)c2)=NO1 (stereo not given) [listing 1 of 2 here] | 0.0033 µM | 2.1 µM | 0.086 µM | 0.49 L/h/kg | 0.74 µM/h/kg | 37.8 min
8 | N=C(N)c1cccc(C2=NOC(Cn3cnnn3)(C(=O)Nc3ccc(-c4ccccc4S(N)(=O)=O)cn3)C2)c1 (stereo not given) [listing 1 of 2 here] | 0.00011 µM | 0.9 µM | 0.018 µM | 0.5 L/h/kg | 0.032 µM/h/kg | 42 min
9 | COCCC1(C(=O)Nc2ccc(-c3ccccc3S(N)(=O)=O)cc2)CC(c2cccc(C(=N)N)c2)=NO1 (stereo not given) | 0.005 µM | 4.4 µM | 0.098 µM |  |  | 
10 | CCS(=O)(=O)CC1(C(=O)Nc2ccc(-c3ccccc3S(N)(=O)=O)cc2)CC(c2cccc(C(=N)N)c2)=NO1 (stereo not given) | 0.0035 µM | 2 µM | 0.072 µM |  |  | 
11 | COC(=O)CC1(C(=O)Nc2ccc(-c3ccccc3S(N)(=O)=O)cn2)CC(c2cccc(C(=N)N)c2)=NO1 (stereo not given) | 0.0023 µM | 3.9 µM | 0.052 µM |  |  | 
12 | COCC1(C(=O)Nc2ncc(-c3ccccc3S(N)(=O)=O)cn2)CC(c2cccc(C(=N)N)c2)=NO1 (stereo not given) | 0.0099 µM | 16 µM | 0.39 µM |  |  | 
13 | N=C(N)c1cccc(C2=NOC(Cn3cnnn3)(C(=O)Nc3ccc(-c4ccccc4S(N)(=O)=O)cc3)C2)c1 (stereo not given) [listing 1 of 2 here] | 0.00052 µM | 0.4 µM | 0.045 µM | 0.3 L/h/kg | 0.035 µM/h/kg | 36 min
14 | N=C(N)c1cccc(C2=NOC(Cn3cncn3)(C(=O)Nc3ccc(-c4ccccc4S(N)(=O)=O)cc3)C2)c1 (stereo not given) | 0.0017 µM | 3.4 µM | 0.047 µM |  |  | 
15 | N=C(N)c1cccc(C2=NOC(Cn3cnnn3)(C(=O)Nc3ccc(-c4ccccc4S(N)(=O)=O)cc3F)C2)c1 (stereo not given) | 0.00044 µM | 0.5 µM | 0.11 µM |  |  | 
16 | N=C(N)c1cccc(C2=NOC(Cn3cnnn3)(C(=O)Nc3ccc(-c4ccccc4S(N)(=O)=O)cc3Cl)C2)c1.O=C(O)C(F)(F)F (stereo not given) | 0.00015 µM | 0.3 µM | 0.047 µM | 0.8 L/h/kg | 0.25 µM/h/kg | 48 min
17 | N=C(N)c1cccc(C2=NOC(Cn3cnnn3)(C(=O)Nc3ncc(-c4ccccc4S(N)(=O)=O)cn3)C2)c1 (stereo not given) [listing 1 of 2 here] | 0.0013 µM | 7.7 µM | 0.5 µM |  |  | 
18 | CCOCC1(C(=O)Nc2ncc(-c3ccccc3S(N)(=O)=O)cn2)CC(c2cccc(C(=N)N)c2)=NO1 (stereo not given) | 0.0068 µM | > 21 µM | 0.33 µM |  |  | 
19 | N=C(N)c1cccc(C2=NOC(Cn3ncnn3)(C(=O)Nc3ccc(-c4ccccc4S(N)(=O)=O)cc3)C2)c1 (stereo not given) | 0.0016 µM | 2.9 µM | 0.091 µM |  |  | 
20 | COC(=O)CC1(C(=O)Nc2ccc(-c3ccccc3S(N)(=O)=O)cc2)CC(c2cccc(C(=N)N)c2)=NO1.O=C(O)C(F)(F)F (stereo not given) |  | 3.1 µM | 0.11 µM | 0.21 L/h/kg | 0.6 µM/h/kg | 55.2 min

Row | SMILES | Ki (Coagulation factor X) | Ki (Prothrombin) | Ki (Serine protease 1) | clearance [1] | ID50 (Oryctolagus cuniculus) | half-life [2]
21 | N=C(N)c1cccc(C2=NOC(C(=O)Nc3ccc(-c4ccccc4S(N)(=O)=O)cc3)(C(F)(F)F)C2)c1 (stereo not given) | 0.023 µM | 6.1 µM | 0.31 µM |  |  | 
22 | N=C(N)c1cccc(C2=NOC(CC(=O)O)(C(=O)Nc3ccc(-c4ccccc4S(N)(=O)=O)cc3)C2)c1.O=C(O)C(F)(F)F (stereo not given) | 0.02 µM | > 21 µM | 0.63 µM | 0.28 L/h/kg | >4.8 µM/h/kg | 94.2 min
23 | Cc1cc(-c2ccccc2S(N)(=O)=O)ccc1NC(=O)C1(Cn2cnnn2)CC(c2cccc(C(=N)N)c2)=NO1 (stereo not given) | 0.001 µM | 0.3 µM | 0.2 µM |  |  | 
24 | N=C(N)c1cccc(C2=NOC(Cc3ccccc3)(C(=O)Nc3ccc(-c4ccccc4S(N)(=O)=O)cc3)C2)c1 (stereo not given) | 0.0085 µM | 1.3 µM | 0.08 µM |  |  | 
25 | N=C(N)c1cccc(C2=NOC(Cn3cnnn3)(C(=O)Nc3ncc(-c4ccccc4S(N)(=O)=O)cn3)C2)c1 (stereo not given) [listing 2 of 2 here] | 0.00032 µM | 3 µM | 0.12 µM |  |  | 
26 | CC(C)COCC1(C(=O)Nc2ccc(-c3ccccc3S(N)(=O)=O)cc2)CC(c2cccc(C(=N)N)c2)=NO1 (stereo not given) | 0.037 µM | 3.9 µM | 0.14 µM |  |  | 
27 | CCCNS(=O)(=O)c1ccccc1-c1ccc(NC(=O)C2(Cn3cnnn3)CC(c3cccc(C(=N)N)c3)=NO2)cc1 (stereo not given) | 0.0021 µM | 0.07 µM | 0.049 µM |  |  | 
28 | N=C(N)c1cccc(C2=NOC(C(=O)Nc3ccc(-c4ccccc4S(N)(=O)=O)cc3)C2)c1 (stereo not given) | 0.0072 µM | 3.9 µM | 0.083 µM |  |  | 
29 | COC(=O)CC1(C(=O)Nc2ncc(-c3ccccc3S(N)(=O)=O)cn2)CC(c2cccc(C(=N)N)c2)=NO1 (stereo not given) | 0.0043 µM | 14 µM | 0.33 µM |  |  | 
30 | N=C(N)c1cccc(C2=NOC(Cn3cnnn3)(C(=O)Nc3ccc(-c4ccccc4S(N)(=O)=O)cn3)C2)c1 (stereo not given) [listing 2 of 2 here] | 0.00017 µM | 1.1 µM | 0.031 µM |  |  | 
31 | CCOCC1(C(=O)Nc2ccc(-c3ccccc3S(N)(=O)=O)cn2)CC(c2cccc(C(=N)N)c2)=NO1 (stereo not given) [listing 1 of 2 here] | 0.0028 µM | 8.4 µM | 0.04 µM |  |  | 
32 | CCSCC1(C(=O)Nc2ncc(-c3ccccc3S(N)(=O)=O)cn2)CC(c2cccc(C(=N)N)c2)=NO1 (stereo not given) | 0.0024 µM | 10 µM | 0.35 µM |  |  | 
33 | CCCCOCC1(C(=O)Nc2ccc(-c3ccccc3S(N)(=O)=O)cc2)CC(c2cccc(C(=N)N)c2)=NO1 (stereo not given) | 0.013 µM | 4 µM | 0.113 µM |  |  | 
34 | CCOCC1(C(=O)Nc2ccc(-c3ccccc3S(N)(=O)=O)cn2)CC(c2cccc(C(=N)N)c2)=NO1 (stereo not given) [listing 2 of 2 here] | 0.0008 µM | 5 µM | 0.025 µM | 1.3 L/h/kg | 0.8 µM/h/kg | 36 min
35 | N=C(N)c1cccc(C2=NOC(Cn3cnnn3)(C(=O)Nc3ccc(-c4ccccc4S(N)(=O)=O)cc3)C2)c1 (stereo not given) [listing 2 of 2 here] | 0.0016 µM | 0.9 µM | 0.091 µM |  |  | 
36 | CC1(C(=O)Nc2ccc(-c3ccccc3S(N)(=O)=O)cn2)CC(c2cccc(C(=N)N)c2)=NO1 (stereo not given) | 0.0041 µM | 8.1 µM | 0.041 µM |  |  | 
37 | CCOCC1(C(=O)Nc2ccc(-c3ccccc3S(N)(=O)=O)cc2)CC(c2cccc(C(=N)N)c2)=NO1 (stereo not given) [listing 2 of 2 here] | 0.0035 µM | 3.1 µM | 0.07 µM |  |  | 
38 | CC1(C(=O)Nc2ccc(-c3ccccc3S(N)(=O)=O)cc2)CC(c2cccc(C(=N)N)c2)=NO1 (stereo not given) | 0.011 µM | 5.8 µM | 0.12 µM |  |  | 
39 | CCS(=O)(=O)CC1(C(=O)Nc2ccc(-c3ccccc3S(N)(=O)=O)cn2)CC(c2cccc(C(=N)N)c2)=NO1 (stereo not given) | 0.0017 µM | 5.8 µM | 0.072 µM |  |  | 
40 | COCC1(C(=O)Nc2ccc(-c3ccccc3S(N)(=O)=O)cc2)CC(c2cccc(C(=N)N)c2)=NO1 (stereo not given) | 0.0034 µM | 2.4 µM | 0.07 µM |  |  | 
